Assay results: patent publication US20220072089A1, “CANCER THERAPEUTIC COMPOSITIONS AND METHODS” (University of Vermont and State Agricultural College, priority 2018, published 2022)
Where two headings read alike, the source gives them in different places.

Experiments:
[1] = system: Malignant mesothelioma (MM) cells; experiment: Malignant mesothelioma cell viability (cell number), Example 1; type: cell-based; details: Homo sapiens
Experimental: Malignant mesothelioma (MM) cells were incubated with increasing concentrations of TS (0-10 μM) and TLK-199 (0-200 μM) for 48 hours and then assayed for cell number (viability).

MM cells = experiment: Combinations administered to subjects with malignant mesothelioma, Example 8; type: in vivo
Experimental: Subjects with malignant mesothelioma (MM) are administered (1) thiostrepton (TS) and TLK-199, (2) TS, gentian violet (GV), and TLK or (3) GV and TLK-199.

[2] = system: patients with myelodysplatic syndrome; details: 50-600 mg/m^2 IV over 60 minutes; cited from earlier work
peroxiredoxin 3 (PRX3) = molecular target: T1, peroxiredoxin 3 (PRX3) (Homo sapiens, UniProt P30048); experiment: Covalent adduction of PRX3 in MM cells (reducing SDS-PAGE, western blot), Example 7; type: cell-based; details: 0, 2, 4 μM TS alone or with 30 μM TLK-199, 24 hours, FIG. 4
T1 construct: endogenous in cells
T1 sequence (P30048 62-256): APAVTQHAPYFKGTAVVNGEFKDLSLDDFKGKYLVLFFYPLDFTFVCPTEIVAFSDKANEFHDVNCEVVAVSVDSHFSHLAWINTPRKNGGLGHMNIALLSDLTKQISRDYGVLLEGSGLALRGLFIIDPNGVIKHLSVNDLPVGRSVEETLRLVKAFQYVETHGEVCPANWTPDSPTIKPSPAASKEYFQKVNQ
Experimental: Malignant mesothelioma (MM) cells were incubated with 0, 2,and 4 μM Thiostrepton (TS) alone or in the presence of 30 μM TLK-199 for 24 hours. Cell lysates were collected, and proteins were separated by reducing SDS-Polyacrylamide Gel Electrophoresis.

[3] = single agent, malignant mesothelioma cells, 48 hours, read-out: inhibitory concentration required to kill 50% of cells (IC50)

Question: Which IC50 [1, 3] does the source give for `CN(C)c1ccc(C(=C2C=CC(=[N+](C)C)C=C2)c2ccc(N(C)C)cc2)cc1` [GV, Gentian violet] here?
Answer: 150 nM

Question: What does the source list for `CCOC(=O)[C@@H](NC(=O)[C@H](CSCc1ccccc1)NC(=O)CC[C@H](N)C(=O)OCC)c1ccccc1` [TLK-199, (S)-ethyl 2-amino-5-(((R)-3-(benzylthio)-1-(((S)-2-ethoxy-2-oxo-1-phenylethyl)amino)-1-oxopropan-2-yl)amino)-5-oxopentanoate]?
Answer: effect of including TLK-199 on reduction in viability of MM cells (MM cells): synergistic effect; bone marrow maturation and cellularity [2]: Improvement in bone marrow maturation and cellularity; clinical symptoms [2]: improvement in clinical symptoms; transfusion requirements [2]: reductions in transfusion requirements; IC50 [1, 3]: 45000 nM

Question: For `C=C(NC(=O)C(=C)NC(=O)c1csc(C2=N[C@@H]3c4csc(n4)[C@H]4NC(=O)c5csc(n5)[C@H]([C@](C)(O)[C@@H](C)O)NC(=O)[C@H]5CSC(=N5)/C(=C/C)NC(=O)[C@H]([C@@H](C)O)NC(=O)c5csc(n5)[C@]3(CC2)NC(=O)[C@H](C)NC(=O)C(=C)NC(=O)[C@H](C)NC(=O)[C@H]([C@@H](C)CC)N[C@@H]2C=Cc3c([C@H](C)O)cc(nc3[C@H]2O)C(=O)O[C@@H]4C)n1)C(N)=O` [TS, Thiostrepton], which “covalent adduction of PRX3 (PRX3 dimer:monomer ratio)” value (peroxiredoxin 3 (PRX3)) is on record?
Answer: PRX3 monomers were covalently crosslinked

Question: And the IC50 ([1]; 48 h, read-out: inhibitory concentration required to kill 50% of cells (IC50))?
Answer: ~1500 nM

Question: What about the IC50 ([1]; read-out: calculated IC50) of the same molecule?
Answer: 900 to 2400 nM
